{"source": "ChEMBL document CHEMBL1201862", "about": "“PubChem BioAssay data set” (2004)", "key": {"Large T antigen": {"target": "Large T antigen (Simian virus 40, UniProt P03070)", "sequence (P03070 whole entry)": "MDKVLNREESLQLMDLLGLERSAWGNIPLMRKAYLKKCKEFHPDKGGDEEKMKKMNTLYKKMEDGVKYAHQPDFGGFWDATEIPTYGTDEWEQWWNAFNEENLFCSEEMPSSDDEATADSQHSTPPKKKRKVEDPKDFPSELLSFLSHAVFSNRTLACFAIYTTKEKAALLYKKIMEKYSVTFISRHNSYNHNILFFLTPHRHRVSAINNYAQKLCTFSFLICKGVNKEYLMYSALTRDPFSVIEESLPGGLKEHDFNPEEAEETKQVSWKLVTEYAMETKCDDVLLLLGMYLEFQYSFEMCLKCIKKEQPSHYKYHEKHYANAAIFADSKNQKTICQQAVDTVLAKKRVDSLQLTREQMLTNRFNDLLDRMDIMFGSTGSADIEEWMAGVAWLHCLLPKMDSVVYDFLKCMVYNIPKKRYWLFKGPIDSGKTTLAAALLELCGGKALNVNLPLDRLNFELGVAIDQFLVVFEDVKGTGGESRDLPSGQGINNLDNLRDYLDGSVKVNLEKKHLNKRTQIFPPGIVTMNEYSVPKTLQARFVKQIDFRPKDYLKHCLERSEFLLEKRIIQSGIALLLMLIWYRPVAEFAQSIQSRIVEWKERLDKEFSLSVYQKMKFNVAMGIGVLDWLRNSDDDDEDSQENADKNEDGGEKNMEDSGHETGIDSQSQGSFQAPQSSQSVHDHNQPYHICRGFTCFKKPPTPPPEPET", "assay_type": "functional, Betapolyomavirus macacae"}, "[1]": {"target": "T1, DNA dC->dU-editing enzyme APOBEC-3A (Homo sapiens, UniProt P31941)", "T1 sequence (P31941 whole entry)": "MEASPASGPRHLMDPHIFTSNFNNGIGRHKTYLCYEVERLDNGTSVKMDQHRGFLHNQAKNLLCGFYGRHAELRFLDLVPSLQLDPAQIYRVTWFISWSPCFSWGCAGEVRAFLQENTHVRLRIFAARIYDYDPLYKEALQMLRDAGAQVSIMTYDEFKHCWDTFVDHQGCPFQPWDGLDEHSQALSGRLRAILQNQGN", "assay": "A3A deaminase inhibition for selectivity – biochemical, dose response (AID 504722)", "assay_type": "functional"}, "[2]": {"target": "T2, DNA dC->dU-editing enzyme APOBEC-3G (Homo sapiens, UniProt Q9HC16)", "T2 sequence (Q9HC16 whole entry)": "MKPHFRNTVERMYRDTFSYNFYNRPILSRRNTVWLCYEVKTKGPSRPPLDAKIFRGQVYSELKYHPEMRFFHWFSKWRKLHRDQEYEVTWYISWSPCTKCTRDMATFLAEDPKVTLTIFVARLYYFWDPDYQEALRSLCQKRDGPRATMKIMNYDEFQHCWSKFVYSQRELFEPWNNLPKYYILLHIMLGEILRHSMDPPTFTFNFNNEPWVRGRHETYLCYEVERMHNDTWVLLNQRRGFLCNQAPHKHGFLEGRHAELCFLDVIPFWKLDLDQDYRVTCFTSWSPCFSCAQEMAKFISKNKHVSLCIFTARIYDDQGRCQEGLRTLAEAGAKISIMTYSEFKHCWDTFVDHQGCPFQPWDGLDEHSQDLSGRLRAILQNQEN", "assay": "Dose Response confirmation of small molecule APOBEC3G DNA Deaminase Inhibitors via a fluorescence-based single-stranded DNA deaminase assay. [Related pubchem assays (depositor defined):AID493012, AID493028]", "assay_type": "functional"}, "[3]": {"target": "T1, DNA dC->dU-editing enzyme APOBEC-3A", "assay": "SAR analysis of small molecule inhibitors of APOBEC3A DNA Deaminase via a fluorescence-based single-stranded DNA deaminase assay - Set 2.", "assay_type": "functional", "settings": "read-out: IC50_Mean"}, "[4]": {"target": "T2, DNA dC->dU-editing enzyme APOBEC-3G", "assay": "SAR analysis of small molecule inhibitors of APOBEC3G DNA Deaminase via a fluorescence-based single-stranded DNA deaminase assay - Set 2.", "assay_type": "functional", "settings": "read-out: IC50_Mean"}, "[5]": {"target": "T2, DNA dC->dU-editing enzyme APOBEC-3G", "assay": "inhibition of APOBEC3G ssDNA deamination – biochemical, fluorescence, single-stranded DNA substrate, SAR follow-up (AID 602136)", "assay_type": "functional", "settings": "read-out: IC50_Mean"}, "[6]": {"target": "T1, DNA dC->dU-editing enzyme APOBEC-3A", "assay": "SAR analysis of small molecule inhibitors of APOBEC3A DNA Deaminase via a fluorescence-based single-stranded DNA deaminase assay.", "assay_type": "functional", "settings": "read-out: IC50_Mean"}, "Hexokinase": {"target": "Hexokinase (Trypanosoma brucei, UniProt Q38C41)", "sequence (Q38C41 whole entry)": "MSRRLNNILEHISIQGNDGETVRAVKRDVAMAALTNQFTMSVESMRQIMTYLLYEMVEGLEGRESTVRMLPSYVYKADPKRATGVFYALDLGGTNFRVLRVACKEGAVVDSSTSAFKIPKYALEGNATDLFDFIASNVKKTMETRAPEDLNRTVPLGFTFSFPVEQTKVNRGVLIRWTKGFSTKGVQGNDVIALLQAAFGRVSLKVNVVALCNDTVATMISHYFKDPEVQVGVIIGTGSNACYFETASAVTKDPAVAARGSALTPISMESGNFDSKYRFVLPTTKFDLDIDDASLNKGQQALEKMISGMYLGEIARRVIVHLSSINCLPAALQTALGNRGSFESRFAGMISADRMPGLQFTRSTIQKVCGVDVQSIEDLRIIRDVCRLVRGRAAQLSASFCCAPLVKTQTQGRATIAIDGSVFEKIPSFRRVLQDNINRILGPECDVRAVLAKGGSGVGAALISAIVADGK", "assay": "Confirmation assay for inhibitors of Trypanosoma brucei hexokinase 1-Analogue-first series. [Related pubchem assays (depositor defined):AID1430, AID1632, AID2516, AID2560, AID2579, AID2600, AID449725, AID492951]", "assay_type": "functional"}, "[7]": {"assay": "Luminescence Cell-Based Dose Response HTS to Identify Inhibitors of 5'UTR Stem-Loop Driven Prion Protein mRNA Translation in H4 Neuroglioblastoma Cells. [Related pubchem assays: 1827 (Project Summary), 1813 (Primary HTS)]", "assay_type": "functional"}, "[8]": {"assay": "alpha-synuclein stem-loop luciferase translation blockers – H4 neuroglioma cells, luminescence, confirmation (AID 1988)", "assay_type": "functional, cell-based"}, "[9]": {"assay": "Luminescence Cell-Based Dose Retest to Confirm Inhibitors of Cancer Stem Cells. [Related pubchem assays (depositor defined):AID2717, AID2721]", "assay_type": "functional", "settings": "Homo sapiens"}, "[10]": {"target": "1-acylglycerol-3-phosphate O-acyltransferase ABHD5/Perilipin-5 (Homo sapiens, UniProt Q00G26+Q8WTS1)", "sequence (Q00G26 whole entry, the tested form may be a part)": "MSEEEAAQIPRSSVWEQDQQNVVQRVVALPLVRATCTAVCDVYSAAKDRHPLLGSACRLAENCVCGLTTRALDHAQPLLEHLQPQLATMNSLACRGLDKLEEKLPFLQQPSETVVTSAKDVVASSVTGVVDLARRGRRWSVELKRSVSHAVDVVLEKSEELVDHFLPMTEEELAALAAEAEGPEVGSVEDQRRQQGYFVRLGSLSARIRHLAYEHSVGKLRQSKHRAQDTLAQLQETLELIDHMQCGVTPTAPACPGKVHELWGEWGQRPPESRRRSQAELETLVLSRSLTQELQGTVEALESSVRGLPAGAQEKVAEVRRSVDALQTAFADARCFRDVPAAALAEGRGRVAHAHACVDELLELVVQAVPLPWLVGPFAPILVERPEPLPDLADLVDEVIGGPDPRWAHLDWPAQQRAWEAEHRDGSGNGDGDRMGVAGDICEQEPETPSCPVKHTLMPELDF", "sequence (Q8WTS1 whole entry, the tested form may be a part)": "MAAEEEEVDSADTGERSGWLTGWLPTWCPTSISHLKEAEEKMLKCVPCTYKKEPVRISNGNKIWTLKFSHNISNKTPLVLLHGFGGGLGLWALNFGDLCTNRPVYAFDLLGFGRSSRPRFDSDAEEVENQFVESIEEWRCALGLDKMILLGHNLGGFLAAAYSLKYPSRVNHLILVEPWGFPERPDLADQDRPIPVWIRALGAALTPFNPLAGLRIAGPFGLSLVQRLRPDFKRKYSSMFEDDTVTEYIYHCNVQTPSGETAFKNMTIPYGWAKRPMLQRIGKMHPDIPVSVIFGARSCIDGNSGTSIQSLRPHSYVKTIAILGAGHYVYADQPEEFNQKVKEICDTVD", "assay": "Luminescence-based biochemical high throughput dose response assay for inhibitors of the interaction of the lipase co-activator protein, abhydrolase domain containing 5 (ABHD5) with perilipin-5 (MLDP; PLIN5) (2K validation set). [Related pubchem assays (depositor defined):AID493035, AID493241]"}, "Perilipin-1/ABHD5": {"target": "Perilipin-1/ABHD5 (Homo sapiens, UniProt O60240+Q8WTS1)", "sequence (Q8WTS1 whole entry, the tested form may be a part)": "as above", "sequence (O60240 whole entry, the tested form may be a part)": "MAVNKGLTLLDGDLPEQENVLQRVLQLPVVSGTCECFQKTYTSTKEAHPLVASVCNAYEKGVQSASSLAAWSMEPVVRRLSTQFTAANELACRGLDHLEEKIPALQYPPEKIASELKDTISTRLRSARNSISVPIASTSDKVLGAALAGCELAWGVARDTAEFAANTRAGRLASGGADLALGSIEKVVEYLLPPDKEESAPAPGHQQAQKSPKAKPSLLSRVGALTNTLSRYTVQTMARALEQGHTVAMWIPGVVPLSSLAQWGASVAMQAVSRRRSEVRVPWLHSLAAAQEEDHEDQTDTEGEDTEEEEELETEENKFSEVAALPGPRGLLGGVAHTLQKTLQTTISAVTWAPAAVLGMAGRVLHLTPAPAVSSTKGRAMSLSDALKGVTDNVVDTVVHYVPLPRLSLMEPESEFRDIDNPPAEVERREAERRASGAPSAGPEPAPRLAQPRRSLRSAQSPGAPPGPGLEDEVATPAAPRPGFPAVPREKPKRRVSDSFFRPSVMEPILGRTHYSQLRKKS", "assay": "Luminescence-based biochemical high throughput dose response assay for inhibitors of the interaction of the lipase co-activator protein, abhydrolase domain containing 5 (ABHD5) with perilipin-1 (PLIN1) (2K validation set). [Related pubchem assays (depositor defined):AID493027, AID493057]"}, "[11]": {"target": "Neurotensin receptor type 1 (Homo sapiens, UniProt P30989)", "sequence (P30989 whole entry)": "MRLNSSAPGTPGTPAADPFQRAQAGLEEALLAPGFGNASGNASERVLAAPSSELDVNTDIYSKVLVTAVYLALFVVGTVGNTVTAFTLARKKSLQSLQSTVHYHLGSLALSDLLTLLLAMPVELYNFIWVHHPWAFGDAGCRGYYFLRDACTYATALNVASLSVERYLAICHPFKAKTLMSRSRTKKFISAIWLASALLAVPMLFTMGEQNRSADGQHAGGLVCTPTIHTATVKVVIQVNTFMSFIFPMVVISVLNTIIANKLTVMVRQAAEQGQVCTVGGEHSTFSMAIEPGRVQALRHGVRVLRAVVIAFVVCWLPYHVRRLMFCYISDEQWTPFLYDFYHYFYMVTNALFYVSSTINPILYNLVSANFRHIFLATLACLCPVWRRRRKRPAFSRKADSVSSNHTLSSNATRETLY", "assay_type": "functional"}, "X-box-binding protein 1": {"target": "X-box-binding protein 1 (Homo sapiens, UniProt P17861)", "sequence (P17861 whole entry)": "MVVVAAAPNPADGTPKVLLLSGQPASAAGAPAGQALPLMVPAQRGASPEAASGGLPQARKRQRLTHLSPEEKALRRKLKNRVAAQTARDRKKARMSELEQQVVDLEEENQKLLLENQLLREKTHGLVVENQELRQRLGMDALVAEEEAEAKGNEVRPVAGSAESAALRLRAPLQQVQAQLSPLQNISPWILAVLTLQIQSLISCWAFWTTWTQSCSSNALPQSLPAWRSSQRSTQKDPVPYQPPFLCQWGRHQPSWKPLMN", "assay_type": "functional, Cricetulus griseus"}, "[12]": {"target": "Eukaryotic translation initiation factor 4H (Homo sapiens, UniProt Q15056)", "assay": "inhibitors of translation initiation factor eIF4H – SAR follow-up (AID 435011)", "assay_type": "functional"}, "[13]": {"target": "Polyadenylate-binding protein 1 (Homo sapiens, UniProt P11940)", "sequence (P11940 whole entry)": "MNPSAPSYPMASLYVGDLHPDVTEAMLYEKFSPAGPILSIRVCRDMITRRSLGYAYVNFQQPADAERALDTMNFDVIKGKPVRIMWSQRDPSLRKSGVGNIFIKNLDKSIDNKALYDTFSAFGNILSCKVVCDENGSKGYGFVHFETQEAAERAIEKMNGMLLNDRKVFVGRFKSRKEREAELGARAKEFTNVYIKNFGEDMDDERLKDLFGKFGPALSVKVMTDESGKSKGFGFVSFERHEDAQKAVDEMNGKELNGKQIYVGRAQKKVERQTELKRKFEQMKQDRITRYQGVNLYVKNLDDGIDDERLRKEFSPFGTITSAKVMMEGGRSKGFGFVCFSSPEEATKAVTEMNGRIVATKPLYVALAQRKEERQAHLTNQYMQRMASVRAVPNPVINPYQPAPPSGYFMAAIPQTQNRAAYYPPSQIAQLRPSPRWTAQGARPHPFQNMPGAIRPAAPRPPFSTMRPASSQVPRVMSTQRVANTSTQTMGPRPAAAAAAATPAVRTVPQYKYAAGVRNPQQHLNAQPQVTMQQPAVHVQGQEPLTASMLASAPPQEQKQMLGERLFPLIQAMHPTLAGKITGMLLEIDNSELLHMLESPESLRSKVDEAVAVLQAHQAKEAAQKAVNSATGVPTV", "assay": "PABP inhibition in translation initiation, SAR follow-up (AID 435018)", "assay_type": "functional"}}, "note": "The source made the active and inactive calls.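 Wherever AC50 is given: cells exposed to compound for roughly 70 hours or longer before luminescence read.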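 Wherever Absolute IC50 (XBP1) is given: confirmatory dose-response counter-screen serving a CHOP assay.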"}
{"molecule": "CCCCn1c(=O)c2ccccc2n2c(S)nnc12", "values": [{"measurement": "IC50", "setting": "Large T antigen", "value": "11.5 µM (active)"}, {"measurement": "IC50", "setting": "[1]", "value": "> 100 µM (inactive)"}, {"measurement": "IC50", "setting": "[2]", "value": "1.7 µM (active)"}, {"measurement": "IC50", "setting": "[3]", "value": "> 99 µM (inactive)"}, {"measurement": "IC50", "setting": "[4]", "value": "0.345 µM (active)"}, {"measurement": "IC50", "setting": "[5]", "value": "2.72 µM (active)"}, {"measurement": "IC50", "setting": "[6]", "value": "> 99 µM (inactive)"}]}
{"molecule": "O=C(O)c1ccc(Cl)cc1NC(=O)N1CCOCC1", "values": [{"measurement": "IC50", "setting": "Hexokinase", "value": "> 25 µM (inactive)"}]}
{"molecule": "O=C(Nc1ccc(Oc2c(F)c(F)c(F)c(F)c2F)cc1)OC1CCN2Cc3ccccc3N=C12", "note": "(configuration not stated)", "values": [{"measurement": "EC50", "setting": "[7]", "value": "12 µM (active)"}, {"measurement": "EC50", "setting": "[8]", "value": "8.72 µM (active)"}, {"measurement": "AC50", "setting": "[9]", "value": "0.888 µM (active)"}, {"measurement": "IC50", "setting": "[10]", "value": "9.84 µM (active)"}, {"measurement": "IC50", "setting": "Perilipin-1/ABHD5", "value": "8.78 µM (active)"}, {"measurement": "EC50", "setting": "[11]", "value": "19 µM (active)"}, {"measurement": "Absolute IC50 (XBP1)", "setting": "X-box-binding protein 1", "value": 10, "unit": "µM"}]}
{"molecule": "O=C(CSc1ccc(-c2ccco2)nn1)Nc1ccccc1", "values": [{"measurement": "IC50", "setting": "[12]", "value": "84.4 µM (active)"}, {"measurement": "IC50", "setting": "[13]", "value": "> 100 µM (inactive)"}]}
